pEC50: −log10 of the molar value. Calls of active or inactive are those of the source.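 The calls were made as follows: active = EC50 no more than a set limit of log units above the highest dose; inactive = the rest.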
Biological target: S. pyogenes SKKanGAS, kanamycin survival, BacTiterGlo, 6 h
Experiment: SKKanGAS survival reduction under kanamycin, dose response, streptokinase promoter inhibitor project, SKKanGAS strain, luminescence, dose confirmation (AID 1902);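 also: lower survival reflects blocked streptokinase promoter driving kanamycin resistance gene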

| Structure (SMILES) | pEC50 | EC50 |
| --- | --- | --- |
| c1ccc(C(NCCNC(c2ccccc2)c2ccccc2)c2ccccc2)cc1 | 5.98 |  |
| C[C@@H](O)[C@H]1C(=O)N2C(C(=O)O)=C(S[C@@H]3CN[C@H](C(=O)N(C)C)C3)[C@H](C)[C@H]12 | 6.90 |  |
| O=C(N/N=C/c1ccc([N+](=O)[O-])o1)c1cc(-c2cccc(Br)c2)nc2ccccc12 | 6.37 |  |
| COc1c(CC=C(C)C)cc(C2CC(=O)c3c(O)cc(O)cc3O2)cc1CC=C(C)C (stereo not drawn) | 5.70 |  |
| CCC1CCCCN1c1cc(C)nc2cc(-c3cccc(C)c3)nn12 (stereo not drawn) | 5.18 |  |
| Cc1cc(C)n(-c2nc(SCC(=O)O)c3c4c(sc3n2)CCCC4)n1 | 5.23 |  |
| CCOc1ccc(/C=N/NC(=S)NC2CC3C=CC2C3)cc1 (stereo not drawn) |  | > 15 µM (inactive) |
| O=C(NC(=S)Nc1ccccc1N1CCCCC1)c1ccc(F)cc1Cl | 5.47 |  |
| CCc1ccc(/C=N/n2c(C3CCCCC3)n[nH]c2=S)cc1 | 5.14 |  |
| Oc1c(N=NC(=S)Nc2ccccc2F)c2ccccc2n1Cc1ccc(F)cc1 | 6.05 |  |
| Oc1ccc(/C=N/n2c3ccccc3c3ccccc32)cc1 | 5.24 |  |
| CCOC(=O)c1cnn(-c2nc3c(C)cccc3s2)c1C(F)(F)F | 4.90 |  |
| COc1ccc(N(CC(=O)NCCSCc2cccc(Cl)c2)S(C)(=O)=O)cc1Cl | 5.33 |  |
| Cc1ccc(-n2c(SCC(=O)Nc3ccc4c5c(cccc35)CC4)nc(O)cc2=O)cc1 | 4.93 |  |
| O=C(Nc1ccc(OC(F)(F)F)cc1)N1CCN(c2ccnc3cc(Cl)ccc23)CC1 | 5.03 |  |
| CCN(c1ccc(OC)cc1)S(=O)(=O)c1nnc(NC(=O)c2ccccc2Cl)s1 | 5.48 |  |
| CC1(C)Cc2c(cnn2-c2ccccc2)-c2c1c1ccccc1n2CC(O)CCl (stereo not drawn) | 5.28 |  |
| C=CCSc1nsc(NC(=O)Nc2ccc(F)cc2)n1 | 5.43 |  |
| c1cn2c(NC3CCCCC3)c(-c3ccc(SC4CCCCC4)cc3)nc2cn1 | 5.70 |  |
| c1ccc(CCNc2nc(-c3ccccn3)cs2)cc1 | 5.43 |  |
| Cc1ccc(NC2=C/C(=N\S(=O)(=O)c3cccs3)c3ccccc3C2=O)c(C)c1 | 5.78 |  |
| CCc1ccc(N(CC(=O)NC2CC2)S(=O)(=O)c2ccc(C)cc2)cc1 |  | > 15 µM (inactive) |
| O=C1[C@H]2C(c3ccccc3)=NN(c3ccccc3)[C@H]2C(=O)N1c1ccccc1 | 6.31 |  |
| CC(C)c1ccc(NC(=O)c2cc(S(=O)(=O)NCC3COc4ccccc4O3)ccc2F)cc1 (stereo not drawn) | 5.27 |  |
| O=C1C=C(Nc2ccccc2O)c2ccccc2C1=O | 5.51 |  |
| O=C(Nc1ccc(N2CCCC2)c(S(=O)(=O)Nc2cccc(C(F)(F)F)c2)c1)c1cccs1 | 5.40 |  |

| Structure (SMILES) | pEC50 | EC50 |
| --- | --- | --- |
| O=S(=O)(Nc1cccc(-c2ccc(N3CCOCC3)nn2)c1)c1ccc(Cl)c(Cl)c1 | 5.02 |  |
| CC(C)N1CCc2c(sc(NC(=O)c3ccc([N+](=O)[O-])o3)c2C(N)=O)C1 | 5.46 |  |
| CC(C)CC(=O)NC(NC(=S)Nc1sc2c(c1C#N)CCCC2)C(Cl)(Cl)Cl (stereo not drawn) | 5.78 |  |
| Cc1ccc2nc(N3C(=O)C(O)=C(C(=O)c4ccco4)C3c3cccs3)sc2c1 (stereo not drawn) | 5.68 |  |
| CC1CCN(c2nc3ccccc3nc2C(C#N)C(=O)NC2CCCCC2)CC1 (stereo not drawn) | 5.72 |  |
| CCC(=O)NC(c1ccc(OC)c(OC)c1)c1cc(Cl)c2cccnc2c1O (stereo not drawn) | 5.30 |  |
| Cc1nn(C(C)C(=O)NC2C(=O)N3C(C(=O)O)=C(CSc4nnnn4C)CSC23)cc1Cl (stereo not drawn) | > 7.22 |  |
| CCc1cc(-c2n[nH]c(C)c2Oc2ccc(C(C)C)cc2)c(O)cc1O | 5.73 |  |
| Cc1ccc2c(=O)[nH]c(Nc3nc(C)cc(-c4ccccc4)n3)nc2c1 | 5.47 |  |
| CCN(CC)CCN(C(=O)CCS(=O)(=O)c1ccccc1)c1nc2cc(C)cc(C)c2s1 |  | > 15 µM (inactive) |
| Oc1ccc(CN2CCN(c3ccccc3)CC2)c2cccnc12 | 5.42 |  |
| Cc1cc(C)c(CSc2ncc(-c3ccc([N+](=O)[O-])cc3)[nH]2)c(C)c1 | 5.38 |  |
| Cc1ccccc1-n1nc(C(=O)c2cccs2)cc(-c2nc3ccccc3[nH]2)c1=N | 5.80 |  |
| CC1(C)Cc2c(cnn2-c2ccccc2)C(NC(=O)CCCN2CCCC2=O)C1 (stereo not drawn) |  | > 15 µM (inactive) |
| CCOC(=O)c1c(-c2ccc(OC)cc2)csc1/N=C/C1=C(O)CCCC1=O | 4.84 |  |
| CC(C)OC(=O)c1cccnc1N1CCN(c2cccc(Cl)c2)CC1 | 5.36 |  |
| O=C(Nc1nc2ccccc2n1Cc1ccccc1)c1ccco1 | 5.54 |  |
| CCCCC[n+]1ccn(C2=C([O-])c3ccccc3C(=O)/C2=N\S(=O)(=O)c2ccc(Br)cc2)c1 | 5.54 |  |
| COc1ccc(-c2c/c(=N\c3nc(-c4ccccc4)c(C)s3)c3ccccc3o2)cc1O | 4.96 |  |
| O=C(O)CN1C(=O)/C(=C\c2cc(Br)ccc2OCc2ccc(Cl)cc2)SC1=S | 5.81 |  |
| N/C(=N\N=C/c1ccc(Br)cc1)N/N=C\c1ccc(Br)cc1 | 5.42 |  |
| Cc1ccc(C(=O)Nc2nc(-c3ccccc3)c(-c3ccccc3)o2)cc1 | 6.27 |  |
| COc1ccc2[nH]c3c(C)c4ccncc4c(C)c3c2c1 | 5.73 |  |
| COc1ccc2[nH]c3c(=O)n(/N=C/c4ccc(OC)c(CN5CCCC5)c4)c(C)nc3c2c1 | 5.15 |  |
| O=C(/C=C/c1ccc([N+](=O)[O-])o1)NNC(=O)c1ccc(F)cc1 | 5.74 |  |
| Cc1ccc(/C=C2/Sc3ccc(C(=O)N4CCC5(CC4)OCCO5)cc3NC2=O)cc1 | 5.23 |  |

| Structure (SMILES) | pEC50 | EC50 |
| --- | --- | --- |
| Cc1cc(NC(=O)c2ccc(C)s2)n(-c2nc3ccccc3[nH]2)n1 | 5.46 |  |
| Nc1c(S(=O)(=O)c2cccs2)c2nc3ccccc3nc2n1/N=C/c1cccc(O)c1 | 5.34 |  |
| CCc1ccc(N=C2NC(=O)/C(=C/c3cc(OC)c(O)c(OC)c3)S2)cc1 | 5.35 |  |
| CC(C)=CCCC1(C)C=Cc2c(c(C)cc3c2[nH]c2cc(O)ccc23)O1 (stereo not drawn) | 5.58 |  |
| COc1ccc(/C=C/C(=O)NC(=S)NNC(=O)c2cnccn2)cc1 | 5.23 |  |
| CC(C)(C)c1ccc(C(=O)Nc2nnc(C3=COCCO3)o2)cc1 | 6.35 |  |
| CCCc1nc2ccccc2c(=O)n1NC(=O)c1c(O)c2cccc3c2n(c1=O)CCC3 | 5.58 |  |
| O=C(Nc1ccc(F)cc1)N1CCCCCC1 |  | > 15 µM (inactive) |
| Cn1c2ccccc2c(=O)c2c(=O)n(C3CCCCC3)c(-c3cccs3)nc21 | 5.15 |  |
| Cc1ccc(OCC(=O)Nc2nc(-c3ccccn3)cs2)c(C)c1 | 5.70 |  |
| O=C(COn1nnc2ccc(C(F)(F)F)cc21)Nc1nnc(-c2ccccc2)o1 | 5.60 |  |
| O=C(O)c1ccc(N=Nc2c(O)[nH]c3ccc(Br)cc23)cc1 | 5.69 |  |
| CC1=NN(/C(=N\c2nnc(C)s2)Nc2ccc(C(C)(C)C)cc2)[C@H](c2ccc(C)cc2)S1 | 5.15 |  |
| CC1=NN(c2ccc([N+](=O)[O-])cc2)C(=O)/C1=C\N(C)C | 5.10 |  |
| CC[C@H]1OC(=O)[C@H](C)[C@@H](O[C@H]2C[C@@](C)(OC)[C@@H](O)[C@H](C)O2)[C@H](C)[C@@H](O[C@@H]2O[C@H](C)C[C@H](N(C)C)[C@H]2O)[C@](C)(O)C[C@@H](C)[C@@H]2N[C@@H](COCCOC)O[C@H]([C@H]2C)[C@]1(C)O | > 7.22 |  |
| CCOc1ccc2nc(NC(=O)CN3CCC(n4nnc5cc(C(F)(F)F)ccc54)CC3)sc2c1 | 5.62 |  |
| CC12CCC(C/C1=N\N=C1\NC(=O)/C(=C\c3ccc(Cl)cc3)S1)C2(C)C (stereo not drawn) | 5.95 |  |
| O=C(CNC(=O)c1ccc2c(c1)OCO2)N/N=C/c1cc(Br)ccc1O | 5.62 |  |
| CC(C)c1ccc(-c2cc(C(=O)N3N=C(C(F)F)CC3(O)C(F)F)c3ccccc3n2)cc1 (stereo not drawn) | 5.51 |  |
| COc1cc([N+](=O)[O-])cc(/C=N\NC(=O)C2COc3ccccc3O2)c1O (stereo not drawn) | 5.44 |  |
| CCCCCCCCCCCCCCCC[N+](C)(C)CC | 5.66 |  |
| CCN(CC)C(=S)Sc1c(-c2ccccc2)c2cc(Cl)ccc2[nH]c1=O | 6.11 |  |
| CC12CCC(c3c(C(=O)Nc4nccs4)nn(-c4ccccc4)c31)C2(C)C (stereo not drawn) | 5.47 |  |
| Oc1ccccc1/C=N/NC(=S)NC1CC2CCC1C2 (stereo not drawn) | 5.43 |  |
| CCOC(=O)c1cnc(-n2nc(C)cc2C)nc1NC(C)c1ccccc1 (stereo not drawn) | 5.56 |  |
| COc1ccccc1NC(=O)C(=O)NNC(=O)COc1ccc2ccccc2c1 | 5.66 |  |

| Structure (SMILES) | pEC50 | EC50 |
| --- | --- | --- |
| Cc1cc(=O)oc2cc(OCC(=O)N3CCN(C(=O)C4COc5ccccc5O4)CC3)ccc12 (stereo not drawn) | 5.50 |  |
| Cc1ccc(Nc2nc(N)nc(CN3CCN(c4ccccc4)CC3)n2)cc1Cl | 4.88 |  |
| C=CCn1c(O)c(C(C)=Nc2ccc(N(CC)CC)cc2)c(=O)[nH]c1=O | 5.24 |  |
| COc1cccc(/C=N/n2c(N)nc3ccccc32)c1OC | 5.23 |  |
| C/C(=N\N=C(/N)SC1CC(=O)N(c2ccc(Br)cc2)C1=O)c1cccs1 (stereo not drawn) | 5.30 |  |
| Cc1ccc(Nc2c(-c3ccccn3)nc3cccc(C)n23)cc1 | 6.49 |  |
| COc1ccc(CCN2CC(C(=O)NCCc3ccccn3)CCC2=O)cc1 (stereo not drawn) |  | > 15 µM (inactive) |
| CCCCCC(=O)NC(=S)NC1C2CC3CC(C2)CC1C3 (stereo not drawn) | 5.42 |  |
| COc1ccc2nc(C3CCCCC3)nc(C3CCCCC3)c2c1 | 5.57 |  |
| COC(=O)c1sc(-c2ccc(C(C)(C)C)cc2)cc1NC(=O)CSCC(=O)O | 5.41 |  |
| CNC[C@H](CC1CCCCC1)NC[C@H](Cc1ccccc1)NCCC12CC3CC(CC(C3)C1)C2 | 5.53 |  |
| COc1ccc(C(=O)N/N=C/c2cc(Br)ccc2O)cc1OC | 5.89 |  |
| COc1c(N2CCN(C(=S)Nc3ccccc3F)C(C)C2)c(F)cc2c(=O)c(C(=O)O)cn(C3CC3)c12 (stereo not drawn) | 5.57 |  |
| COc1ccc(Oc2nc(-c3ccccn3)nc3ccccc23)cc1 | 5.19 |  |
| COc1ccc(C(=O)/C=C/c2ccc(-c3ccccc3)cc2)cc1CSCC(=O)O | 5.26 |  |
| Nc1c(Cl)cc(-c2csc(N3CCCC3c3nc4cc(Cl)c(Cl)cc4n3CCOCCO)n2)cc1Cl (stereo not drawn) |  | > 15 µM (inactive) |
| Cc1[nH]n(-c2ccccc2)c(=O)c1N=Nc1c(O)cc(S(=O)(=O)N(C)C)c2ccccc12 | 5.96 |  |
| CC(C)Cn1c(=O)c(C(=O)Nc2ccncc2)c(O)c2ccccc21 | 5.38 |  |
| Cn1c(N)c(C(=O)COC(=O)/C=C/c2ccc(OC(F)F)cc2)c(=O)n(C)c1=O | 5.83 |  |
| Cc1c(C(=O)NNC(=O)c2ccccc2O)oc2ccc(Br)cc12 |  | > 15 µM (inactive) |
| O=C(NNC(=O)c1cc(-c2ccc(Cl)c(Cl)c2)nc2ccccc12)Nc1ccccc1 | 5.32 |  |
| O=C(N/N=C/c1sc2ccccc2c1O)c1cccc2ccccc12 | 5.60 |  |
| Nc1c(S(=O)(=O)c2ccccc2)c2nc3ccccc3nc2n1/N=C/c1cccc(O)c1 | 5.28 |  |
| O=C(CN1CCCC1)Nc1ccc(NC(=O)Nc2ccccc2)cc1 |  | > 15 µM (inactive) |
| N=c1c2c(-c3ccccc3)c(-c3ccccc3)oc2ncn1Cc1ccco1 | 5.49 |  |
